Assay results published in the Kinase Knowledgebase extract (Sharma et al. 2016).

What was measured:
[1] = molecular target: EGFR (human), P00533 [WT]
[2] = molecular target: EGFR (Human), P00533 [T790M/L858R]
Chain of EGFR (Human), P00533 [T790M/L858R] (P00533 whole entry T790M/L858R, looked up): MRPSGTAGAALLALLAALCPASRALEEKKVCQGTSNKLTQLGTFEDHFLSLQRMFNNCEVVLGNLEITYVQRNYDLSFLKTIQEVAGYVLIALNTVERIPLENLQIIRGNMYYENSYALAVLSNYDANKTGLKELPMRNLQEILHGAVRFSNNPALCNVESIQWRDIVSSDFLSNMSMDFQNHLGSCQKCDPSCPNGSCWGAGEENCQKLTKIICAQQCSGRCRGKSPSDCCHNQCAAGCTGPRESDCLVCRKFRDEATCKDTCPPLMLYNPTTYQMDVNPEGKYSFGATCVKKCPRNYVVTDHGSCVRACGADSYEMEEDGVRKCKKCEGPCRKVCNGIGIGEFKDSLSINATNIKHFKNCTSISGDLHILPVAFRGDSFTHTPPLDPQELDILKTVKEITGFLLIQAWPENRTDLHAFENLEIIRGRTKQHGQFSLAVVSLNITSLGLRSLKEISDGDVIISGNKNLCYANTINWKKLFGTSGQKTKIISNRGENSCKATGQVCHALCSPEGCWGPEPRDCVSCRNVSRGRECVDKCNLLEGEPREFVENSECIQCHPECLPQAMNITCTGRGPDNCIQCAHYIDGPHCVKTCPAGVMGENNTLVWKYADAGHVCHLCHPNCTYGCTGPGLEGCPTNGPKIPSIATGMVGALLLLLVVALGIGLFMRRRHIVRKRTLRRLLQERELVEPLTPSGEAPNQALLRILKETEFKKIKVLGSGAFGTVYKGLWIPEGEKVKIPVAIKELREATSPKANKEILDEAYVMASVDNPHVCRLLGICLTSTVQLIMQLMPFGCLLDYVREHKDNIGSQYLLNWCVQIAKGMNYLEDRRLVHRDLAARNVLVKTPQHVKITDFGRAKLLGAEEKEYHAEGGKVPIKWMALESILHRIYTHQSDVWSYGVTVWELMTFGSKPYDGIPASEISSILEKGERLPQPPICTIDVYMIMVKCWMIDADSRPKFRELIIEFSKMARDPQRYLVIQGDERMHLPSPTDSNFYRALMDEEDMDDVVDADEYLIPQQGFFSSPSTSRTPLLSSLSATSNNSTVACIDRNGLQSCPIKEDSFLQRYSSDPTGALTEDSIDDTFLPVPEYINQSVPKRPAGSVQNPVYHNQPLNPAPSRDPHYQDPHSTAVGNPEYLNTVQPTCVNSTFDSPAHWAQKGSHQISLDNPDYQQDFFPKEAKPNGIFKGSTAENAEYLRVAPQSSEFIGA

Chain of EGFR (human), P00533 [WT] (P00533 whole entry, looked up): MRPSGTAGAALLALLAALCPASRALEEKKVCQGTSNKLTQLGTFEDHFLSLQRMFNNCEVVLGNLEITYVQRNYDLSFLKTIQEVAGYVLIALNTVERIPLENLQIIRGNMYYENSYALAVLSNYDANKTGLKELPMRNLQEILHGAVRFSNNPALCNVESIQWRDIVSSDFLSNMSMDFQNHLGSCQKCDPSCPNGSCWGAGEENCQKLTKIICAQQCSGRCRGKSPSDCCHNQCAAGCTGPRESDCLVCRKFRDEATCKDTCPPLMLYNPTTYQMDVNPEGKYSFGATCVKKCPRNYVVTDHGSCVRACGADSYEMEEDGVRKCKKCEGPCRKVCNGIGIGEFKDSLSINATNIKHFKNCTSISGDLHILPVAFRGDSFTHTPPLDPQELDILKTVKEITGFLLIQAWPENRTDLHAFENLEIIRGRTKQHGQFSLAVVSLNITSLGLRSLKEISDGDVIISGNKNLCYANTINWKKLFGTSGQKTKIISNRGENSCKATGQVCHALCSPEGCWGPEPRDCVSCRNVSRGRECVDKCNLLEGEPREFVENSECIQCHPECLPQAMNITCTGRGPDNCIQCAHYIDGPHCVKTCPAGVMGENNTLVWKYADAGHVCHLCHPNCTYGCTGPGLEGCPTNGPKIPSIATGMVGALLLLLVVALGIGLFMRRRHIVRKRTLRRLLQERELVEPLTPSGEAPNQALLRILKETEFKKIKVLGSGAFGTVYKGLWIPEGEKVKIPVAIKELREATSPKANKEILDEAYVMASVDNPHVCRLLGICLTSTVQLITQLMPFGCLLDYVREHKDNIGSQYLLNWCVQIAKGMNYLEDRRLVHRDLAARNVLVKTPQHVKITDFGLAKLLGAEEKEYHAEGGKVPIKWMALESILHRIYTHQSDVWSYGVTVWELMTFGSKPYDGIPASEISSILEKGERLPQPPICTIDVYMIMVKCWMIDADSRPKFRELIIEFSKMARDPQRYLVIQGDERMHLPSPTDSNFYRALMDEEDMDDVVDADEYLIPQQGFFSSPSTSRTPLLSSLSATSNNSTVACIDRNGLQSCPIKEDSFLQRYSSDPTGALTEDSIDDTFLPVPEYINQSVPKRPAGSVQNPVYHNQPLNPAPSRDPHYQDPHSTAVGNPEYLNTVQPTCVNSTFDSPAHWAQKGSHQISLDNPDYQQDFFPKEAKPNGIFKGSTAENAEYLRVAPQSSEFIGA

SMILES	IC50 [1] [nM]	IC50 [2] [nM]
C#Cc1cccc(Nc2cc(Nc3cccc(NC(=O)C=C)c3)ncn2)c1	≤ 10	
C=CC(=O)N1CCCC(Nc2cc(Nc3ccc(F)c(Cl)c3)ncn2)C1 (stereo not drawn)	≤ 10	
C/C=C/C(=O)Nc1cccc(Nc2cc(Nc3cccc(Br)c3)ncn2)c1	≤ 10	
C=CS(=O)(=O)Nc1cccc(Nc2cc(Nc3ccc(OCc4cccc(F)c4)c(Cl)c3)ncn2)c1	≤ 10	
C=CC(=O)Nc1cccc(Nc2cc(Oc3cccc(OC)c3)ncn2)n1	≤ 10	
Cc1cccc(Oc2cc(Nc3cccc(NC(=O)C=CCN(C)C)n3)ncn2)c1	≤ 10	
CC=CC(=O)c1cccc(Nc2cc(Nc3ccc(Oc4ccccc4)cc3)ncn2)c1	≤ 10	
C=CC(=O)Nc1cccc(Nc2cc(Nc3ccccc3)ncn2)n1	≤ 10	
CN(C)C/C=C/C(=O)Nc1cccc(Nc2cc(Nc3ccccc3)ncn2)n1	≤ 10	
C=CC(=O)Nc1cccc(Nc2cc(Oc3ccc(Oc4ccccc4)cc3)ncn2)n1	≤ 10	
C=CC(=O)Nc1cccc(Nc2cc(Nc3cccc(Br)c3)ncn2)c1	≤ 10	
CN(C)C/C=C/C(=O)Nc1cccc(Nc2cc(Nc3ccc(F)c(Cl)c3)ncn2)n1	≤ 10	≤ 10
C=CC(=O)Nc1cccc(Nc2cc(Nc3ccccc3)ncn2)c1	≤ 10	
O=C(Nc1cccc(Nc2cc(Nc3ccc(F)c(Cl)c3)ncn2)c1)C1(C(F)(F)F)CC1	≤ 10	
Cc1cccc(Nc2cc(Nc3cccc(NC(=O)/C=C/CN(C)C)c3)ncn2)c1	≤ 10	
N#CC1(C(=O)Nc2cccc(Nc3cc(Nc4ccc(F)c(Cl)c4)ncn3)c2)CC1	≤ 10	
C=CC(=O)Nc1cccc(Nc2cc(Nc3ccc(F)c(Cl)c3)ncn2)c1	≤ 10	
CN(C)C/C=C/C(=O)Nc1cccc(Nc2cc(Nc3ccc(F)c(Cl)c3)ncn2)c1	≤ 10	
C=CC(=O)Nc1cccc(Nc2cc(Nc3ccc(Br)cc3F)ncn2)c1	≤ 10	
Cc1ccc(NC(=O)/C=C/CN(C)C)cc1Nc1cc(Nc2ccc(F)c(Cl)c2)ncn1	≤ 10	
CC(Cl)C(=O)Nc1cccc(Nc2cc(Nc3ccc(F)c(Cl)c3)ncn2)c1 (stereo not drawn)	≤ 10	
C=CC(=O)Nc1cccc(Nc2cc(Nc3cccc(C)c3)ncn2)c1	≤ 10	
C=CS(=O)(=O)Nc1cccc(Nc2cc(Nc3ccc(F)c(Cl)c3)ncn2)c1	≤ 10	

SMILES	IC50 [1] [nM]	IC50 [2] [nM]
CN(C)C/C=C/C(=O)Nc1cccc(Nc2cc(Oc3ccc(F)c(Cl)c3)ncn2)c1	≤ 10	
C=CC(=O)Nc1cccc(Nc2cc(Nc3cccc(Oc4ccccc4)c3)ncn2)c1	≤ 10	
C=CC(=O)N1CCC(Nc2cc(Nc3ccc(F)c(Cl)c3)ncn2)C1 (stereo not drawn)	≤ 10	
CN(C)C/C=C/C(=O)Nc1cccc(Nc2cc(Nc3ccc(OCc4cccc(F)c4)c(Cl)c3)ncn2)c1	≤ 10	
C=CC(=O)Nc1ccc(Nc2cc(Nc3cccc(Br)c3)ncn2)cc1	≤ 10	
C=CC(=O)Nc1cccc(Nc2cc(Oc3cccc(C(F)(F)F)c3)ncn2)c1	≤ 10	
C=CS(=O)(=O)Nc1cccc(Nc2cc(Oc3cccc(C(F)(F)F)c3)ncn2)c1	≤ 10	
O=C(C=CCN1CCCC1)Nc1cccc(Nc2cc(Nc3ccc(F)c(Cl)c3)ncn2)c1	≤ 10	≤ 10
C=CC(=O)Nc1cccc(Nc2cc(Oc3cccc(C)c3)ncn2)n1	≤ 10	
CN(C)C/C=C/C(=O)Nc1cccc(Nc2cc(Nc3ccc(OCc4ccccn4)c(Cl)c3)ncn2)c1	≤ 10	
C=CC(=O)Nc1cccc(Nc2cc(Nc3ccc(OCc4ccccn4)c(Cl)c3)ncn2)c1	≤ 10	
CC#CC(=O)c1cccc(Nc2cc(Nc3ccc(Oc4ccccc4)cc3)ncn2)c1	≤ 10	
CN(C)C/C=C/C(=O)Nc1cccc(Nc2cc(Oc3ccc(Oc4ccccc4)cc3)ncn2)n1	≤ 10	
C=CC(=O)Nc1cccc(Nc2cc(Oc3ccc(OC)cc3)ncn2)n1	≤ 10	
O=C(CCl)Nc1cccc(Nc2cc(Nc3ccc(F)c(Cl)c3)ncn2)c1	≤ 10	
C=CS(=O)(=O)Nc1cccc(Nc2cc(Nc3cccc(C)c3)ncn2)c1	≤ 10	
C=CC(=O)N(C)c1cccc(Nc2cc(Nc3ccc(Oc4ccccc4)cc3)ncn2)n1	≤ 10	
C=CC(=O)Nc1cccc(Nc2cc(N3CCc4ccccc43)ncn2)c1	≤ 10	
C=CC(=O)Nc1cccc(Nc2cc(Nc3ccc(Oc4ccccc4)cc3)ncn2)c1	≤ 10	
C=CC(=O)Nc1cccc(Nc2cc(N(C)c3ccccc3)ncn2)c1	≤ 10	
C=CC(=O)Nc1cccc(Nc2cc(Nc3ccc(Oc4ccccc4)cc3)ncn2)n1	≤ 10	
COc1ccc(NC(=O)/C=C/CN(C)C)cc1Nc1cc(Nc2ccc(F)c(Cl)c2)ncn1	≤ 10	
CN(C)C/C=C/C(=O)N(C)c1cccc(Nc2cc(Nc3ccc(Oc4ccccc4)cc3)ncn2)n1	≤ 10	
